Laboratory results taken from patent US6479524B1, “Substituted aryl and heteroaryl derivatives, their production and their use as medicines” (Boehringer Ingelheim Pharma KG, priority 1998, dated 2002).

tested on: human citrated plasma; assay: aPTT time prolongation (clotting of human citrated plasma, Biomatic B10 coagulometer); assay type: biochemical; conditions: effective concentration at which the aPTT time is double compared with the control, 37° C.
Experimental: were investigated for their effect on prolonging the aPTT time as follows:
plasma, from human citrated blood.
Diethylbarbiturate acetate buffer, Behring Werke, Marburg (ORWH 60/61),
Biomatic B10 coagulometer, Desaga, Wiesloch.
The aPTT time was determined using a Biomatic B10 coagulometer made by Messrs. Sarstedt.
The test substance was placed in the test tubes prescribed by the manufacturer with 0.1 ml of human citrated plasma and 0.1 ml of PTT reagent. The mixture was incubated for three minutes at 37° C. The clotting reaction was started by the addition of 0.1 ml of calcium solution. The time is measured using the apparatus from the addition of the calcium solution up to the clotting of the mixture. Mixtures to which 0.1 ml of DBA buffer were added were used as the controls.

SMILES	aPTT time (ED200 in μM) [µM]
Cc1cc(C(=O)N(C)c2ccccn2)c(C)cc1C#CCNc1ccc(C(=N)N)cc1 [D, 4-{3-[2,5-dimethyl-4-(N-methyl-N-pyridin-2-yl-aminocarbonyl)-phenyl]propargylamino}benzamidine]	0.23
CCN(CCC(=O)OC)C(=O)c1cc(C)c(C#CCNc2ccc(C(=N)N)cc2)cc1C [G, 4-{3-[2,5-dimethyl-4-(N-(2-methoxycarbonyl-ethyl)-N-ethyl-carbonylamino)-phenyl]-propargylamino}benzamidine]	0.29
Cc1cc(C(=O)C(C)C)c(C)cc1C#CCNc1ccc(C(=N)N)cc1 [C, 4-[3-(2,5-dimethyl-4-isopropylcarbonyl-phenyl)propargyl-amino]benzamidine]	0.97
Cc1cc(C(=O)N(C)c2ccccn2)c(C)cc1CCCNc1ccc(C(=N)N)cc1 [E, 4-{3-[2,5-dimethyl-4-(N-methyl-N-pyridin-2-yl-aminocarbonyl)-phenyl]prop-1-ylamino}benzamidine]	0.69
Cc1cc(NC(=O)N(CC(=O)O)C(C)C)c(C)cc1C#CCNc1ccc(C(=N)N)cc1 [H, 4-{3-[2,5-dimethyl-4-(N-isopropyl-N-hydroxycarbonylmethyl-aminocarbonyl-amino)-phenyl]-propargylamino}-benzamidine]	0.20
Cc1cc(C(=O)N2CCCC2C)c(C)cc1C#CCNc1ccc(C(=N)N)cc1 (racemic) [B, rac-4-{3-[2,5-dimethyl-4-(2-methyl-pyrrolidinocarbonyl)-phenyl]-propargylamino}benzamidine]	0.45
CCOC(=O)Cc1cc(C#CCNc2ccc(C(=N)N)cc2)c(C)cc1C(=O)N1CCCC1C (racemic) [A, rac-4-{3-[5-ethoxycarbonylmethyl-2-methyl-4-(2-methyl-pyrrolidinocarbonyl)-phenyl]-propargylamino}benzamidine]	0.23
Cc1cc(N(C(=O)CC(=O)O)C(C)C)c(C)cc1C#CCNc1ccc(C(=N)N)cc1 [I, 4-{3-[2,5-dimethyl-4-(N-isopropyl-N-hydroxycarbonylmethyl-carbonyl-amino)-phenyl]-propargylamino}-benzamidine]	0.45
Cc1cc(C#CCNc2ccc(C(=N)N)cc2)ccc1C(=O)N1CCCC1 [F, 4-[3-(3-methyl-4-pyrrolidinocarbonyl-phenyl)-propargyl-amino]-benzamidine]	0.54
